For orientation: IC50 means the point on the concentration scale where inhibition reaches its midpoint. Read a high IC50 as weaker potency.

The results in this text go back to patent US20150152088A1, “ALKYNYL HETEROAROMATIC COMPOUND AND USE THEREOF” (Nanjing Sanhome Pharmaceutical Co., Ltd., priority 2012, published 2015).

The first experiment has as its system K562 chronic myelogenous leukemia cells. In words: MTT assay, in vitro inhibitory activity on cells. Type of experiment: cell-based. The note with it: Homo sapiens, K562, 48 h, typically 48 hours. From the text:
In this example, MTT assay was used to detect in vitro inhibitory activity of the compounds prepared according to the above examples on the cells. […] AP24534 was purchased from Shanghai Xinkuo Chemical Technology Co., Ltd., China.
Dimethyl sulfoxide (DMSO) is capable of dissolving formazan in cells, and absorbance value can be measured at a wavelength of 490 nm by an enzyme-linked immunometric meter, which reflects the number of living cells. Within a certain range of the number of cells, the amount of MTT crystals formed is proportional to the number of living cells.
1. […] 2. Culturing in a 37° C., 5% CO2 incubator and keeping the cells adhering to the wall of the well. 3. […] 4. Carefully removing the supernatant, gently washing with PBS and discarding the supernatant again. 5. […] 6. Terminating culturing and carefully discarding the medium in each well. 7. Adding 150 μl dimethyl sulfoxide into each well, shaking for 10 minutes at low speed in a shaker, to make crystals fully dissolved. 8. Measuring the absorbance of each well at 490 nm by an enzyme-linked immunometric meter. 9. Calculating IC50 values.
As to `CNc1ncc2c(C#Cc3cc(C(=O)Nc4ccc(CN5CCN(C)CC5)c(C(F)(F)F)c4)ccc3C)cccc2n1` [Example 28, 3-((2-methylaminoquinazolin-5-yl)ethynyl)-4-methyl-N-[(4-((4-methyl)piperazin-1-yl)methyl)-3-trifluoromethylphenyl]benzamide], the midpoint of inhibition, the IC50, lay at 15.5 µM.

As to `CNc1ncc2ccc(C#Cc3cc(C(=O)Nc4ccc(CN5CCN(CCO)CC5)c(C(F)(F)F)c4)ccc3C)cc2n1` [Example 15, 3-((2-methylaminoquinazolin-7-yl)ethynyl)-4-methyl-N-[4-((4-(2-hydroxyethyl)piperazin-1-yl)methyl)-3-trifluoromethylphenyl]benzamide], the IC50 was found to be 2.9 µM. Against the preceding molecule, the IC50 is about 5.3-fold lower. With `Cc1ccc(NC(=O)Nc2ccc(CN3CCN(C)CC3)c(C(F)(F)F)c2)cc1C#Cc1ccc2cncnc2c1` [Example 31], the IC50 was determined as 1.09 µM.

Regarding `CC(=O)Nc1ncc2c(F)cc(C#Cc3cc(C(=O)Nc4ccc(CN5CCN(C)CC5)c(C(F)(F)F)c4)ccc3C)cc2n1` [Example 10, 3-((5-fluoro-2-acetylaminoquinazolin-7-yl)ethynyl)-4-methyl-N-[4-((4-methylpiperazin-1-yl)methyl)-3-trifluoromethylphenyl]benzamide], the IC50 stood at 6.88 µM. In turn, `Cc1ccc(C(=O)Nc2ccc(CN3CCN(C)CC3)c(C(F)(F)F)c2)cc1C#Cc1ccc2c(c1)nc(N)n2C` [Example 22, 3-((2-amino-1-methyl-1H-benzo[d]imidazol-5-yl)ethynyl)-4-methyl-N-[(4-(4-methylpiperazin-1-yl)methyl)-3-trifluoromethylphenyl]benzamide] registered an IC50 of 8.1 µM. Take `CC(=O)Nc1ncc2ccc(C#Cc3cc(C(=O)Nc4ccc(CN5CCN(C)CC5)c(C(F)(F)F)c4)ccc3C)cc2n1` [Example 8, 3-((2-acetylaminoquinazolin-7-yl)ethynyl)-4-methyl-N-[4-((4-methylpiperazin-1-yl)methyl)-3-trifluoromethylphenyl]benzamide]: 1.6 µM corresponded to half-maximal inhibition (IC50).

In turn, `CNC(=O)c1cc(Oc2ccc(NC(=O)c3ccc(C)c(C#Cc4ccc5c(NC)ncnc5c4)c3)cc2)ccn1` [Example 30] showed an IC50 of 89.1 µM. The same measure, in the same setting: under `Cc1ccc(C(=O)Nc2ccc(CN3CCS(=O)(=O)CC3)c(C(F)(F)F)c2)cc1C#Cc1cccc2ncncc12` [Example 17] stands 8.72 µM; under `Cc1ccc(C(=O)Nc2ccc(CN3CCN(C)CC3)c(C(F)(F)F)c2)cc1C#Cc1cccc2nc(N)ncc12` [Example 27, 3-((2-aminoquinazolin-5-yl)ethynyl)-4-methyl-N-[(4-(4-methylpiperazin-1-yl)methyl)-3-trifluoromethylphenyl]benzamide], 9.05 µM; under `Cc1ccc(C(=O)Nc2ccc(CN3CCN(C)CC3)c(C(F)(F)F)c2)cc1C#Cc1ccc2ncncc2c1` [Example 2, 3-((quinazolin-6-yl)ethynyl)-4-methyl-N-[4-((4-methylpiperazin-1-yl)methyl)-3-trifluoromethylphenyl]benzamide], 3.72 µM. `CNC(=O)c1cc(Oc2ccc(NC(=O)c3ccc(C)c(C#Cc4cccc5ncncc45)c3)cc2)ccn1` [Example 29, 3-((quinazolin-5-yl)ethynyl)-4-methyl-N-[4-(2-(N-methylcarboxamido)pyridinyl-4-oxy)phenyl]benzamide] showed a 50% inhibitory concentration (IC50) of 24.1 µM. Against the preceding molecule, the IC50 is about 6.5-fold higher.

Consider `CNc1ncnc2cc(C#Cc3cc(C(=O)Nc4ccc(CN5CCN(CCO)CC5)c(C(F)(F)F)c4)ccc3C)ccc12` [Example 14, 3-((4-methylaminoquinazolin-7-yl)ethynyl)-4-methyl-N-[4-((4-(2-hydroxyethyl)piperazin-1-yl)methyl)-3-trifluoromethylphenyl]benzamide], for which the IC50 came to 5.68 µM.

Staying with this experiment, now noted: typically 48 hours.
As to `Cc1ccc(C(=O)Nc2ccc(CN3CCC(N(C)C)C3)c(C(F)(F)F)c2)cc1C#Cc1cccc2ncncc12` (stereo in doubt) [Example 19, 3-((quinazolin-5-yl)ethynyl)-4-methyl-(S)—N-[4-((3-(dimethylamino)pyrrolidin-1-yl)methyl)-3-trifluoromethylphenyl]benzamide], half-maximal inhibition (IC50) required 8.1 µM.
